Assay results from patent US20240000872A1, “NOVEL BACTERIOPHAGE THAT LYSES ACINETOBACTER GENUS BACTERIA HAVING RESISTANCE TO ANTIBIOTICS” (priority 2020, published 2024).

Test system: Acinetobacter baumannii strains
Assay: Antibiotic susceptibility test (CLSI disk diffusion test method, read per CLSI 2016); note: key: ‘S’ means susceptible; ‘I’ means intermediate; ‘R’ means resistant
Assay type: cell-based

CO/N=C(\C(=O)N[C@@H]1C(=O)N2C(C(=O)O)=C(COC(C)=O)CS[C@H]12)c1csc(N)n1 [Cefotaxime, cefotaxime]
I: susceptibility category (S/I/R) (host strain YMC16/03/R4461)
S: antibiotic susceptibility S/I/R (host strain YMC17/02/B4864) | susceptibility category (S/I/R) (host strain YMC17/02/B4864)
R: antibiotic susceptibility class (host strain YMC14/01/C29) | antibiotic susceptibility class (host strain YMC14/01/IP122) | antibiotic susceptibility class (host strain YMC14/01/L8) | antibiotic susceptibility class (host strain YMC14/01/P31) | antibiotic susceptibility class (host strain YMC14/01/P117) | antibiotic susceptibility class (host strain YMC14/01/P224) | antibiotic susceptibility class (host strain YMC14/01/P727) | antibiotic susceptibility class (host strain YMC14/01/P728) | antibiotic susceptibility class (host strain YMC14/01/R130) | antibiotic susceptibility class (host strain YMC14/01/R160) | antibiotic susceptibility class (host strain YMC14/01/R198) | antibiotic susceptibility class (host strain YMC14/01/R257) | antibiotic susceptibility class (host strain YMC14/01/R270) | antibiotic susceptibility class (host strain YMC14/01/R324) | antibiotic susceptibility class (host strain YMC14/01/R443) | antibiotic susceptibility class (host strain YMC14/01/R451) | antibiotic susceptibility class (host strain YMC14/01/R560) | antibiotic susceptibility class (host strain YMC14/01/R617) | antibiotic susceptibility class (host strain YMC14/01/R671) | antibiotic susceptibility class (host strain YMC14/01/R732) | antibiotic susceptibility class (host strain YMC14/01/R767) | antibiotic susceptibility class (host strain YMC14/01/R904) | antibiotic susceptibility class (host strain YMC14/01/R905) | antibiotic susceptibility class (host strain YMC14/01/R921) | antibiotic susceptibility class (host strain YMC14/01/R941) | antibiotic susceptibility class (host strain YMC14/01/R958) | antibiotic susceptibility class (host strain YMC14/01/R1006) | antibiotic susceptibility class (host strain YMC14/01/R1199) | antibiotic susceptibility class (host strain YMC14/01/R1659) | antibiotic susceptibility class (host strain YMC14/01/R1722) | antibiotic susceptibility class (host strain YMC14/01/R1752) | antibiotic susceptibility class (host strain YMC14/01/R2429) | antibiotic susceptibility class (host strain YMC14/01/R2572) | antibiotic susceptibility class (host strain YMC14/01/R2855) | antibiotic susceptibility class (host strain YMC14/01/R2945) | antibiotic susceptibility class (host strain YMC14/01/R3007) | antibiotic susceptibility class (host strain YMC14/01/R3129) | antibiotic susceptibility class (host strain YMC14/01/R3317) | antibiotic susceptibility class (host strain YMC14/01/R3474) | antibiotic susceptibility class (host strain YMC14/01/R3574) | antibiotic susceptibility class (host strain YMC14/01/U313) | antibiotic susceptibility class (host strain YMC14/01/U318) | antibiotic susceptibility class (host strain YMC14/02/L18) | antibiotic susceptibility class (host strain YMC14/02/P47) | antibiotic susceptibility class (host strain YMC14/02/R1860) | antibiotic susceptibility class (host strain YMC14/02/R2417) | antibiotic susceptibility class (host strain YMC14/02/R2599) | antibiotic susceptibility class (host strain YMC14/02/R2668) | antibiotic susceptibility class (host strain YMC14/02/R2758) | antibiotic susceptibility class (host strain YMC14/02/R2781) | antibiotic susceptibility class (host strain YMC14/02/R3106) | antibiotic susceptibility class (host strain YMC14/02/R3419) | antibiotic susceptibility class (host strain YMC14/02/U1607) | antibiotic susceptibility class (host strain YMC14/03/L9) | antibiotic susceptibility class (host strain YMC14/03/P471) | antibiotic susceptibility class (host strain YMC14/03/R122) | antibiotic susceptibility class (host strain YMC14/03/R217) | antibiotic susceptibility class (host strain YMC14/03/R380) | antibiotic susceptibility class (host strain YMC14/03/R618) | antibiotic susceptibility class (host strain YMC14/03/R2144) | antibiotic susceptibility class (host strain YMC14/03/U4616) | antibiotic susceptibility class (host strain YMC14/04/R1078) | antibiotic susceptibility class (host strain YMC14/04/R1080) | antibiotic susceptibility S/I/R (host strain YMC14/06/R2359) | susceptibility category (S/I/R) (host strain YMC14/06/R2359) | antibiotic susceptibility S/I/R (host strain YMC14/08/R1169) | susceptibility category (S/I/R) (host strain YMC14/08/R1169) | antibiotic susceptibility S/I/R (host strain YMC14/08/T90) | susceptibility category (S/I/R) (host strain YMC14/08/T90) | antibiotic susceptibility S/I/R (host strain YMC15/02/R436) | susceptibility category (S/I/R) (host strain YMC15/02/R436) | antibiotic susceptibility S/I/R (host strain YMC15/02/T28) | susceptibility category (S/I/R) (host strain YMC15/02/T28) | antibiotic susceptibility S/I/R (host strain YMC15/03/R1604) | susceptibility category (S/I/R) (host strain YMC15/03/R1604) | antibiotic susceptibility S/I/R (host strain YMC15/09/R1869) | susceptibility category (S/I/R) (host strain YMC15/09/R1869) | antibiotic susceptibility S/I/R (host strain YMC16/01/P11) | susceptibility category (S/I/R) (host strain YMC16/01/P11) | antibiotic susceptibility S/I/R (host strain YMC16/01/R123) | susceptibility category (S/I/R) (host strain YMC16/01/R123) | antibiotic susceptibility S/I/R (host strain YMC16/01/R198) | susceptibility category (S/I/R) (host strain YMC16/01/R198) | antibiotic susceptibility S/I/R (host strain YMC16/01/R353) | susceptibility category (S/I/R) (host strain YMC16/01/R353) | antibiotic susceptibility S/I/R (host strain YMC16/01/R380) | susceptibility category (S/I/R) (host strain YMC16/01/R380) | antibiotic susceptibility S/I/R (host strain YMC16/01/R397) | susceptibility category (S/I/R) (host strain YMC16/01/R397) | antibiotic susceptibility S/I/R (host strain YMC16/01/R405) | susceptibility category (S/I/R) (host strain YMC16/01/R405) | antibiotic susceptibility S/I/R (host strain YMC16/05/R2210) | susceptibility category (S/I/R) (host strain YMC16/05/R2210) | antibiotic susceptibility S/I/R (host strain YMC16/07/R2512) | susceptibility category (S/I/R) (host strain YMC16/07/R2512) | antibiotic susceptibility S/I/R (host strain YMC16/09/R2471) | susceptibility category (S/I/R) (host strain YMC16/09/R2471) | antibiotic susceptibility S/I/R (host strain YMC16/10/R2537) | susceptibility category (S/I/R) (host strain YMC16/10/R2537) | antibiotic susceptibility S/I/R (host strain YMC16/12/B11422) | susceptibility category (S/I/R) (host strain YMC16/12/B11422) | antibiotic susceptibility S/I/R (host strain YMC16/12/B11449) | susceptibility category (S/I/R) (host strain YMC16/12/B11449) | antibiotic susceptibility S/I/R (host strain YMC16/12/B13325) | susceptibility category (S/I/R) (host strain YMC16/12/B13325) | antibiotic susceptibility S/I/R (host strain YMC16/12/P503) | susceptibility category (S/I/R) (host strain YMC16/12/P503) | antibiotic susceptibility S/I/R (host strain YMC16/12/R4637) | susceptibility category (S/I/R) (host strain YMC16/12/R4637) | antibiotic susceptibility S/I/R (host strain YMC17/01/B8053) | susceptibility category (S/I/R) (host strain YMC17/01/B8053) | antibiotic susceptibility S/I/R (host strain YMC17/01/B10087) | susceptibility category (S/I/R) (host strain YMC17/01/B10087) | antibiotic susceptibility S/I/R (host strain YMC17/01/B12075) | susceptibility category (S/I/R) (host strain YMC17/01/B12075) | antibiotic susceptibility S/I/R (host strain YMC17/01/B13454) | susceptibility category (S/I/R) (host strain YMC17/01/B13454) | antibiotic susceptibility S/I/R (host strain YMC17/01/P518) | susceptibility category (S/I/R) (host strain YMC17/01/P518) | antibiotic susceptibility S/I/R (host strain YMC17/01/R2812) | susceptibility category (S/I/R) (host strain YMC17/01/R2812) | antibiotic susceptibility S/I/R (host strain YMC17/02/B14) | susceptibility category (S/I/R) (host strain YMC17/02/B14) | antibiotic susceptibility S/I/R (host strain YMC17/02/B87) | susceptibility category (S/I/R) (host strain YMC17/02/B87) | antibiotic susceptibility S/I/R (host strain YMC17/02/B721) | susceptibility category (S/I/R) (host strain YMC17/02/B721) | antibiotic susceptibility S/I/R (host strain YMC17/02/B4039) | susceptibility category (S/I/R) (host strain YMC17/02/B4039) | antibiotic susceptibility S/I/R (host strain YMC17/02/B4520) | susceptibility category (S/I/R) (host strain YMC17/02/B4520) | antibiotic susceptibility S/I/R (host strain YMC17/02/B8414) | susceptibility category (S/I/R) (host strain YMC17/02/B8414) | antibiotic susceptibility S/I/R (host strain YMC17/02/P523) | susceptibility category (S/I/R) (host strain YMC17/02/P523) | antibiotic susceptibility S/I/R (host strain YMC17/02/R541) | susceptibility category (S/I/R) (host strain YMC17/02/R541) | antibiotic susceptibility S/I/R (host strain YMC17/02/R2392) | susceptibility category (S/I/R) (host strain YMC17/02/R2392) | antibiotic susceptibility S/I/R (host strain YMC17/03/B4730) | susceptibility category (S/I/R) (host strain YMC17/03/B4730) | antibiotic susceptibility S/I/R (host strain YMC17/03/B5000) | susceptibility category (S/I/R) (host strain YMC17/03/B5000) | antibiotic susceptibility S/I/R (host strain YMC17/03/P971) | susceptibility category (S/I/R) (host strain YMC17/03/P971) | antibiotic susceptibility S/I/R (host strain YMC17/03/R348) | susceptibility category (S/I/R) (host strain YMC17/03/R348) | antibiotic susceptibility S/I/R (host strain YMC17/03/R585) | susceptibility category (S/I/R) (host strain YMC17/03/R585) | antibiotic susceptibility S/I/R (host strain YMC17/03/R1888) | susceptibility category (S/I/R) (host strain YMC17/03/R1888) | antibiotic susceptibility S/I/R (host strain YMC17/03/R3279) | susceptibility category (S/I/R) (host strain YMC17/03/R3279) | antibiotic susceptibility S/I/R (host strain YMC17/03/R4077) | susceptibility category (S/I/R) (host strain YMC17/03/R4077) | antibiotic susceptibility S/I/R (host strain YMC17/03/R4607) | susceptibility category (S/I/R) (host strain YMC17/03/R4607) | antibiotic susceptibility S/I/R (host strain YMC17/04/R488) | susceptibility category (S/I/R) (host strain YMC17/04/R488) | antibiotic susceptibility S/I/R (host strain YMC17/04/R640) | susceptibility category (S/I/R) (host strain YMC17/04/R640) | antibiotic susceptibility S/I/R (host strain YMC/17/05/R1095) | susceptibility category (S/I/R) (host strain YMC/17/05/R1095)
